Test results taken from the NIST ThermoML archive (doi:10.1021/je800375t).
Numbers after ± are expanded uncertainties.

Details: Liquid

COC [dimethyl ether]
Details	vapor or sublimation pressure [kPa]
213.08 K	16.46 ± 1.4
218.11 K	22.24 ± 1.4
223.15 K	29.61 ± 1.4
228.06 K	38.64 ± 1.4
233.09 K	49.96 ± 1.4
238.11 K	63.84 ± 1.4
243.07 K	80.36 ± 1.4
248.12 K	100.43 ± 1.4
253.12 K	124.09 ± 1.4
258.13 K	152.4 ± 1.5
263.13 K	184.96 ± 1.5
268.13 K	222.7 ± 1.5
273.17 K	266.5 ± 1.6
278.17 K	316.12 ± 1.7
283.16 K	372.9 ± 1.8
288.13 K	436.69 ± 1.9
293.17 K	509.01 ± 2
298.08 K	588.17 ± 2.2
298.78 K	600.51 ± 2.2
303.15 K	679.68 ± 2.4
303.78 K	691.56 ± 2.4
308.13 K	778.92 ± 2.6
313.17 K	889.98 ± 2.9
318.16 K	1011.5 ± 3.2
323.17 K	1144.7 ± 3.6
328.16 K	1290.2 ± 4
333.17 K	1449.2 ± 4.5
338.17 K	1621.5 ± 5
343.16 K	1809.1 ± 5.6
348.16 K	2012.4 ± 6.3
353.16 K	2232.3 ± 7
358.16 K	2468.9 ± 7.7
363.16 K	2723.3 ± 8.5
368.14 K	2996.4 ± 9.3
373.14 K	3291.2 ± 10
378.15 K	3608.6 ± 11
383.15 K	3948.6 ± 12
388.16 K	4313.9 ± 13
393.16 K	4706.2 ± 15
